Data set [1] can be described thus: In vitro cytotoxic concentration against MT-4 cells. It is filed as cell-based, MT4. The settings on record: human.
The nature of data set [2]: In vitro cytotoxic concentration against CEM cells. It is filed as cell-based, CCRF-CEM. As to conditions: human.
Data set [3] concerns MT4. As to the kind of experiment: In vitro antiviral activity against HIV-2 in MT-4 cells. Type of data set: functional, cell-based. The settings on record: Homo sapiens.
Data set [4] has as its system CCRF-CEM. Nature of the data set: In vitro antiviral activity against HIV-2 in CEM cells. As to conditions: Homo sapiens. It is filed as functional, cell-based.
Data set [5] concerns MT4. Nature of the data set: In vitro antiviral activity against HIV-1 in MT-4 cells. Type of data set: functional, cell-based. The settings on record: Homo sapiens.
The subject of data set [6] is CCRF-CEM. As to the kind of experiment: In vitro antiviral activity against HIV-1 in CEM cells. It is filed as functional, cell-based. The settings on record: Homo sapiens.

A value given as a limit tells only on which side of the number the result lay.

Usually CC50 stands for the concentration giving 50% cytotoxicity. A higher CC50 goes with better tolerance by the cells. Usually EC50 stands for the midpoint of the concentration-response curve. Read a high EC50 as a need for much substance. Consider `Nc1ncnc2c1ncn2CCOCP(=O)(O)O` [ADEFOVIR], for which the figures for the CC50 in data set [1] and in data set [2] were 144 µM and 69 µM, respectively. The EC50 with MT4 [3] was 7.5 µM; in the data set with CCRF-CEM [4], 10 µM; in the data set with MT4 [5], 7 µM; with CCRF-CEM [6], 7 µM.
Regarding `COC(=O)CNP(=O)(CO[C@H](C)Cn1cnc2c(N)ncnc21)Oc1ccccc1` (stereo partly specified), the CC50 in data set [1] amounted to 102 µM; in data set [2], 88.5 µM. Further, the EC50 was determined as 0.15 µM in the data set with MT4 [3], 0.31 µM in the data set on CCRF-CEM [4], 0.58 µM in the data set with MT4 [5] and 0.23 µM in the data set with CCRF-CEM [6].
For the compound `C[C@H](Cn1cnc2c(N)ncnc21)OCP(=O)(Oc1ccccc1)Oc1ccccc1`, the CC50 in data set [1] and in data set [2] was above 250 µM throughout. Besides, the EC50 with MT4 [3] was 4.9 µM; in the data set with CCRF-CEM [4], 4 µM; in the data set on MT4 [5] it was 6.2 µM; in the data set with CCRF-CEM [6] it was 4 µM.
Regarding `COC(=O)[C@@H](C)NP(=O)(CO[C@H](C)Cn1cnc2c(N)ncnc21)Oc1ccc(Cl)cc1` (stereo partly specified), the figures for the CC50 in data set [1] and in data set [2] were 57 µM and 106 µM, respectively. The half-maximal effective concentration (EC50) with MT4 [3] is 0.26 µM; in the data set on CCRF-CEM [4], 0.12 µM; in the data set on MT4 [5], 0.15 µM; in the data set on CCRF-CEM [6] it was 0.2 µM.
For the compound `COC(=O)[C@H](C)NP(=O)(COCCn1cnc2c(N)ncnc21)Oc1ccccc1` (stereo partly specified), the CC50 in data set [1] was found to be 120 µM; in data set [2], 67 µM. In addition, the EC50 in the data set with MT4 [3] stood at 7.2 µM; in the data set on CCRF-CEM [4], 6 µM; with MT4 [5], 15 µM; in the data set with CCRF-CEM [6], 5 µM.
With `COC(=O)[C@@H](C)NP(=O)(CO[C@H](C)Cn1cnc2c(N)ncnc21)Oc1ccccc1` (stereo partly specified), the CC50 in data set [1] amounted to 71.4 µM; in data set [2] it was 27 µM. In addition, the half-maximal effective concentration (EC50) in the data set on MT4 [3] turned out to be 0.026 µM; in the data set on CCRF-CEM [4], 0.09 µM; in the data set on MT4 [5], 0.029 µM; in the data set on CCRF-CEM [6] it was 0.053 µM.
With `C[C@H](Cn1cnc2c(N)ncnc21)OCP(=O)(O)O` [TENOFOVIR ANHYDROUS], the CC50 in data set [1] was 197 µM; in data set [2] it was above 250 µM. Moreover, the EC50 with MT4 [3] was 1.4 µM; in the data set with CCRF-CEM [4], 3.67 µM; with MT4 [5], 2.3 µM; in the data set with CCRF-CEM [6], 3.67 µM.
Consider `COC(=O)[C@@H](Cc1ccccc1)NP(=O)(CO[C@H](C)Cn1cnc2c(N)ncnc21)Oc1ccc(Cl)cc1` (stereo partly specified), for which the figures for the CC50 in data set [1] and in data set [2] were 64 µM and 26 µM, respectively. Also, the EC50 came to 0.07 µM in the data set on MT4 [3], 0.06 µM in the data set with CCRF-CEM [4], 0.04 µM in the data set with MT4 [5] and 0.07 µM with CCRF-CEM [6].
For `COC(=O)[C@@H](C)NP(=O)(COCCn1cnc2c(N)ncnc21)Oc1ccccc1` (stereo partly specified), the CC50 in data set [1] was 5.1 µM; in data set [2], 3.7 µM. The EC50 in the data set with MT4 [3] worked out at 0.15 µM; in the data set on CCRF-CEM [4], 0.2 µM; in the data set on MT4 [5], 0.23 µM; in the data set on CCRF-CEM [6], 0.12 µM.
Take `COC(=O)[C@H](C)NP(=O)(CO[C@H](C)Cn1cnc2c(N)ncnc21)Oc1ccccc1` (stereo partly specified): the results for the half-maximal cytotoxic concentration (CC50) in data set [1] and in data set [2] were 213 µM and 125 µM, respectively. The concentration for a half-maximal effect (EC50) in the data set on MT4 [3] is 0.65 µM; in the data set on CCRF-CEM [4], 0.38 µM; in the data set on MT4 [5], 0.99 µM; with CCRF-CEM [6], 0.5 µM.
As for `COC(=O)CNP(=O)(COCCn1cnc2c(N)ncnc21)Oc1ccccc1` (stereo unspecified), the CC50 stood at 120 µM in data set [1] and 80 µM in data set [2]. Also, the EC50 is 4.8 µM with MT4 [3], 4.5 µM in the data set with CCRF-CEM [4], 3.6 µM in the data set on MT4 [5] and 5.6 µM in the data set with CCRF-CEM [6].

The record behind these values is ChEMBL document CHEMBL1134026, “Synthesis and evaluation of novel amidate prodrugs of PMEA and PMPA” (Bioorg Med Chem Lett, 2001).
